Experiments:
[1] = test system: SMAD4 sgRNA; assay: Activity of sgRNA after incubation with small molecule anticancer agents (WB in Cas9-expressing SKOV3 cells); format: cell-based, human; conditions: for suppression of SMAD4 protein by sgRNA after coincubation: 12 h of coincubation, effective = levels <30% of baseline; for effect of co-incubation on SMAD4 sgRNA suppression: up to 24 h prior to transfection
Description: Activity of sgRNA after incubation with various small molecule anticancer agents: To determine the effects of platination or alkylation of sgRNA on silencing efficiency, SMAD4 sgRNA was first pre-incubated with various small molecules including Pt(II), Pt(IV)-COOH, doxorubicin, gemcitabine, camptothecin, or melphalan for either 12 h or 24 h, at 37° C., and at a drug to sgRNA molar ratio of 10:1 in RNase free water. The sgRNA was then purified by […] (Mw=3 kDa) and quantified by Nanodrop. The RNAi-MAX (Invitrogen, Thermo-fisher, USA) was utilized to transfect the reacted sgRNA (10 nM) into Cas9-expressing SKOV3 cells in 6-well plates. After 72 h, protein was recovered from cell lysates and analyzed by WB to quantify SMAD4 and GAPDH (product of a house-keeping gene; control) levels with respect to those of untreated cells. In addition, to compare the effects of Pt(II) and Pt(IV)-COOH interference with sgRNA-mediated recognition and target gene silencing by Cas9, various incubation periods were examined (i.e. 3, 6, and 9 h).

[2] = test system: s-SMAD4; assay: Reactions of sgRNA with anticancer agents by MALDI/TOF MS; conditions: for time at which RNA adducts were formed: excess agent; for adducts in the RNA macromolecule: 24 h of incubation
Description: Determination of the reactions of sgRNA with anticancer agents by MALDI/TOF MS: A 20-mer of RNA comprising the seed region of SMAD4 sgRNA (s-SMAD4) was mixed with Pt(II), Pt(IV)-COOH, doxorubicin, gemcitabine, camptothecin or melphalan at a molar ratio of 1:10 in RNase free water (RNA final concentration (10 μM); small molecule (100 μM)). The reaction mixture was shaken in a 37° C. incubator for a prescribed time interval (30 min, 1 h, 3 h, 6 h, 9 h, 12 h, or 24 h); and, 10 μL of each solution was analyzed by MALDI/TOF MS (positive mode), employing hydroxipicolinic acid as the matrix.

[3] = test system: 5′-GMP; assay: 5′-GMP binding with platinum species by 1HNMR
Description: The binding kinetics of 5′-GMP to each platinum species were determined by measuring the relative amounts of free and Pt-bound 5′-GMP at each time point, integrating the ratio of the ^1HNMR peaks at 8.5 ppm to 8.09 ppm.

[4] = test system: BCL-2 siRNA; assay: siRNA binding with platinum species by MALDI-TOF-MS; conditions: 10-fold excess of platinum species
Description: A single-stranded siRNA (UCAGGUACUCAGUCAUCCACATT) was mixed with OxaPt(II) at a molar ratio of 1:10 in RNAase free water (RNA final concentration: 50 μM; Pt final concentration: 500 μM; total volume: 100 μL). The reaction mixture was placed in a 37° C. incubator and 10 μL of sample were removed at various time points to obtain MALDI-TOF-MS spectra (positive model). Analogous methods were employed to obtain spectra of the reaction products of siRNA with OxaPt(IV), CisPt(II) and CisPt(IV).

[5] = test system: s-SMAD4; assay: Kinetics of Pt-RNA adduct formation by AAS
[6] = test system: s-SMAD4; assay: PicoGreen based melting temperature assay of s-SMAD4/ss-DNA heterodimer
Description: The Tm of the unreacted 20-mer and the ss-DNA (41° C.) resembled the calculated Tm of the heterodimer of the native SMAD4 sgRNA with DNA (43° C.).

[7] = test system: Cytoplasmic RNA; conditions: upon intracellular uptake; cited from earlier work
[8] = test system: BCL-2 siRNA; assay: Silencing activity of BCL-2 siRNA preincubated with platinum species (qRT-PCR); format: cell-based; conditions: MCF-7 cells, RT-qPCR 48 h after transfection, pre-incubation 1 vs. 12 h
Description: 48 hours after transfection, total RNA was isolated using an RNeasy mini-kit (Qiagen, Germantown, Md.) and quantified by NanoDrop. 300 ng of mRNA were subsequently subjected to qRT-PCR analysis, targeting BCL-2 and glyceraldehyde 3-phosphate dehydrogenase (GAPDH) by using the SYBR Premix Ex (Takara, USA) and by using an Applied Biosystems StepOne Real-Time PCR System. Relative gene expression values were determined by the […] using StepOne Software v2.1 (Applied Biosystems). Data are presented as fold differences in […] normalized to GAPDH (house-keeping gene used as endogenous reference), employing a standard curve, and are reported relative to untreated (control) cells. The sequence of the primers used for BCL-2 and GAPDH are as follows: BCL-2 forward—5-[…]-3; Bcl-2 reverse—5-[…]-3; GAPDH forward—5-[…]-3; and GAPDH reverse primer—5-[…]-3 (Integrated DNA Technology. IW, USA). The specificity of each set of primers was verified by melting curve analysis.

Row | SMILES | incubation time beyond which sgRNA was unable to prevent protein expression [1] [h] | suppression of SMAD4 protein by sgRNA after coincubation [1] | effect of co-incubation on SMAD4 sgRNA suppression [1] | adducts in the RNA macromolecule [2] | earliest time Pt-siRNA adducts detected [4] | also measured
1 | N[C@@H](Cc1ccc(N(CCCl)CCCl)cc1)C(=O)O [melphalan] | > 6 | unable to effectively suppress expression of SMAD4 protein | – | – | – | time at which RNA adducts were formed [2]: 1 h
2 | CC[C@@]1(O)C(=O)OCc2c1cc1n(c2=O)Cc2cc3ccccc3nc2-1 [camptothecin] | – | – | did not alter the ability of SMAD4 sgRNA to effectively suppress expression levels | no adducts were detected | – | –
3 | N.N.[Cl][Pt][Cl] [CisPt(II), cisplatin] | > 3 | unable to effectively suppress expression of SMAD4 protein | – | – | ≤ 30 m | formation of Pt(NH3)2(5′-GMP)2 adducts ([3]; data not shown): rapid formation and time dependent increases; time at which RNA adducts were formed ([2]; aqueous solution, 37° C.): 0.5 h; Pt atoms bound per RNA macromolecule [5]: up to 6; RNA platinated ([5]; incubated for 1 h with >10 μM): > 50%; apparent second-order rate constant ([5]; pseudo-first order kinetics): > 1e+07 M⁻¹ s⁻¹; heterodimerization of pretreated s-SMAD4 with ss-DNA [6]: could not heterodimerize with ss-DNA at any temperature; concentrations of Pt-RNA adducts relative to Pt-DNA adducts [7]: 5-6 times
4 | Nc1ccn([C@@H]2O[C@H](CO)[C@@H](O)C2(F)F)c(=O)n1 [gemcitabine] | – | – | did not alter the ability of SMAD4 sgRNA to effectively suppress expression levels | no adducts were detected | – | –
5 | O=C1[O][Pt]2([NH][C@@H]3CCCC[C@H]3[NH]2)[O]C1=O [OxaPt(II), Oxaliplatin] | – | – | – | – | 1 h | DACHPt(5′-GMP)2 adducts as share of the total 5′-GMP pool ([3]; over the first 6 h, 10 mM 5′-GMP, 5 mM Pt, 37° C.): > 40%; effect of incubation with siRNA on silencing efficiency [8]: concentration and time-dependent decrease in silencing efficiency
6 | COc1cccc2c1C(=O)c1c(O)c3c(c(O)c1C2=O)C[C@@](O)(C(=O)CO)C[C@@H]3O[C@H]1C[C@H](N)[C@H](O)[C@H](C)O1 [doxorubicin] | – | – | did not alter the ability of SMAD4 sgRNA to effectively suppress expression levels | physical association multimers in non-covalent complexes with RNA | – | –
